# Data from patent US20080095863A1, “2-PYRROLIDONE DERIVATIVES FOR PRESERVATION OF OPHTHALMIC, OTIC AND NASAL COMPOSITIONS” (Alcon Manufacturing Ltd., priority 2006, published 2008).
# “Also recorded” adds a separate entry of the source.
# Experiments:
# [1] = cited from earlier work
# [2] = system: S. aureus, P. aeruginosa, E. coli, C. albicans and A. niger; test: Compliance with USP and/or Ph. Eur. preservative efficacy standards (Table 1); format: cell-based; conditions: for meeting European Pharmacopoeia 5.0 (Ph. Eur. B) standards as sole preservative: without any other preservative
# Procedure: (§1) Antimicrobial preservative effectiveness as set forth by the examples infra was determined using an organism challenge test according to the methods described in the United States Pharmacopoeia 24 (USP) for category 1A products, and in European Pharmacopoeia 5.0 (Ph. Eur.) for parenteral and ophthalmic preparations. […] The samples were then pulled at specified intervals to determine if the antimicrobial preservative system was capable of killing or inhibiting the propagation of organisms purposely introduced into the formulation. The rate or level of antimicrobial activity determines compliance with the USP and/or Ph. Eur. preservative efficacy standards for the cited categories of preparations.
# (§2) Relative to fungi, the USP standards require that the compositions maintain stasis (i.e., no growth) relative to the population of the initial inoculum over the entire 28 day test period. A category 1A product is an injection, or other parenteral including emulsions, otic, sterile nasal products and ophthalmic products made with aqueous bases or vehicles.
# (§3) The margin of error in calculating microorganism populations is generally accepted to be +/−0.5 logs. Accordingly, the term “stasis”, as utilized herein relative to the above-discussed USP standards, means that the initial population cannot increase by more than 0.5 log orders, relative to the initial population.
# (§4) As cited by Table 1, the Ph. […] Regarding fungi, the Ph.
# [3] = system: Aspergillus niger ATCC 16404; test: Antimicrobial preservative effectiveness organism challenge test (USP 24 / Ph. Eur. 5.0); format: cell-based; conditions: A. niger, 7 days; 0.05 w/v % in Table 2 formulation, pH 7.5
# Procedure: as §1, §2, §3, §4
# [4] = system: Staphylococcus aureus ATCC 6538; test: as above; format: cell-based; conditions: S. aureus, pH 7.5
# Procedure: as §1, §2, §3, §4
# [5] = system: Candida albicans ATCC 10231; test: as above; format: cell-based
# Procedure: as §1, §2, §3, §4
# [6] = system: Pseudomonas aeruginosa ATCC 9027; test: as above; format: cell-based; conditions: P. aeruginosa, 0.05 w/v % in Table 2 formulation, pH 7.5
# Procedure: as §1, §2, §3, §4
# [7] = system: Escherichia coli ATCC 8739; test: as above; format: cell-based; conditions: E. coli, 0.05 w/v % in Table 2 formulation, pH 7.5
# Procedure: as §1, §2, §3, §4
SMILES,"solubility limited in aqueous solutions to ([1]; aqueous solutions, unless enhanced by another surfactant) [%]",soluble in water up to [1],meeting European Pharmacopoeia 5.0 (Ph. Eur. B) standards as sole preservative [2],Log Order Reductions [3] [log order],"Log Order Reductions ([4]; 6 hours, 0.05 w/v % in Table 2 formulation (propylene glycol 1.8, phosphate)) [log order]","Log Order Reductions ([4]; 24 hours, 0.05 w/v % in Table 2 formulation) [log order]","Log Order Reductions ([4]; 7 days, 0.05 w/v % in Table 2 formulation) [log order]","kill of Candida albicans ([5]; 0.05% composition, in 7 days)","Log Order Reductions ([5]; C. albicans, 7 days, 0.05 w/v % in Table 2 formulation, pH 7.5) [log order]",Log Order Reductions ([6]; 6 hours) [log order],Log Order Reductions ([6]; 24 hours) [log order],Log Order Reductions ([6]; 7 days) [log order],Log Order Reductions ([7]; 6 hours) [log order],Log Order Reductions ([7]; 24 hours) [log order],Log Order Reductions ([7]; 7 days) [log order],"kill of both gram-negative and gram-positive bacteria ([2]; 0.05% composition, in six hours)","meeting United States Pharmacopoeia 24 standards as sole preservative ([2]; without any other preservative or preservative aid, isotonic pH 7.5 formulation)"
CCCCCCCCCCCCN1CCCC1=O [N-dodecyl-2-pyrrolidone],≤ 0.002,up to 0.002%,requires a second anti-microbial agent; also recorded: insufficient as a sole agent for preservation,–,–,–,–,–,–,–,–,–,–,–,–,–,–
"CCCCCCCCN1CCCC1=O [N-Octyl-2-Pyrrolidone, N-octyl-2-pyrrolidone]",–,up to 0.124%,provided sufficient preservation to comply; also recorded: effective as a sole preservative,0.7,4.9,4.9,4.9,essentially complete kill,4.8,4.9,4.9,4.9,5.0,5.0,5.0,essentially complete kill,provided sufficient preservation to comply
